Results: patent publication US9655849B2, “Solid particulate compositions comprising coenzyme Q10” (Particle Dynamics International, LLC, priority 2011, dated 2017)
Several values for one entry are separate records, joined by “and”; a condition that tells them apart may be missing. Equal values may be shown once.

Assay: CoQ10 Starting Material Particle Size Analysis, laser diffraction, dry dispersion
Format: physicochemical
Description: This example details the results of particle size analysis for a commercially available CoQ10 starting material. Dry samples of KANEKA Q10 powder were analyzed using laser diffraction to obtain a measurement of particle size characteristics.
Particle size analysis of the CoQ10 starting material was conducted using a dry dispersion method. A […] HELOS equipped with a RODOS dispersion module and a R3 lens was employed for the analysis. Prior to the analysis the sample was evaluated using optical microscopy. Particles were well dispersed and ranged in size from approximately 5 microns to approximately 90 microns.

[1] = dry powder, Avg. of analyses A-F
[2] = dry powder, single analyses A-F

COC1=C(OC)C(=O)C(C/C=C(\C)CC/C=C(\C)CC/C=C(\C)CC/C=C(\C)CC/C=C(\C)CC/C=C(\C)CC/C=C(\C)CC/C=C(\C)CC/C=C(\C)CCC=C(C)C)=C(C)C1=O [KANEKA Q10]
x10, Particulate Size Distribution (Number Basis) [1]: 0.55 μm
x10, Particulate Size Distribution (Volume Basis) [1]: 4.76 μm
x50, Particulate Size Distribution (Number Basis) [1]: 0.77 μm
x50, Particulate Size Distribution (Volume Basis) [1]: 15.16 μm
x90, Particulate Size Distribution (Number Basis) [1]: 1.30 μm
x90, Particulate Size Distribution (Volume Basis) [1]: 40.52 μm
x95, Particulate Size Distribution (Number Basis) [1]: 1.78 μm
x95, Particulate Size Distribution (Volume Basis) [1]: 50.83 μm
x99, Particulate Size Distribution (Number Basis) [1]: 5.11 μm
x99, Particulate Size Distribution (Volume Basis) [1]: 71.32 μm
x10, Particulate Size Distribution (Number Basis) [2]: 0.55 μm
x10, Particulate Size Distribution (Volume Basis) [2]: 4.99 μm and 5.21 μm and 4.63 μm and 4.16 μm and 4.77 μm and 4.80 μm
x50, Particulate Size Distribution (Volume Basis) [2]: 15.36 μm and 15.89 μm and 15.04 μm and 14.37 μm and 15.15 μm
x90, Particulate Size Distribution (Volume Basis) [2]: 40.65 μm and 41.41 μm and 40.36 μm and 39.46 μm and 40.75 μm and 40.46 μm
x95, Particulate Size Distribution (Number Basis) [2]: 1.79 μm and 1.74 μm and 1.77 μm and 1.80 μm and 1.78 μm
x95, Particulate Size Distribution (Volume Basis) [2]: 50.84 μm and 51.76 μm and 50.62 μm and 49.96 μm and 51.11 μm and 50.68 μm
x99, Particulate Size Distribution (Number Basis) [2]: 5.30 μm and 5.13 μm and 4.98 μm and 4.93 μm and 5.14 μm and 5.20 μm
x99, Particulate Size Distribution (Volume Basis) [2]: 71.36 μm and 71.75 μm and 71.16 μm and 70.79 μm and 71.66 μm and 71.20 μm
portion of the total volume attributable to particulates greater than 15 μm in diameter (volume basis): more than 50%
